In patent US12157749B2, “Borate-based drug and use thereof” (Chengdu Origin Biotechnology Limited Company, priority 2018, dated 2024):

Legend:
[1] = system: human multiple myeloma cells RPMI-8226; assay: Activity test on human multiple myeloma cells RPMI-8226 (CCK-8, GI50); assay type: cell-based; details: RPMI 8226 cells, 48 h incubation
Experimental: (§1) Cells RPMI-8226 (human multiple myeloma cells from ATCC (American type culture collection), ATCC CCL-155) and cells MM.1S (human multiple myeloma cells from ATCC (American type culture collection), ATCC CRL-2974) were cultured to logarithmic growth phase in RPMI 1640 medium containing 10% fetal bovine serum at 37° C. and 5% CO2. The cells were inoculated into 96-well culture plates in proper quantity per well. After culturing at 37° C. and 5% CO2 for 24 h, solvent control DMSO or test compounds dissolved in DMSO were added to the wells, wherein the starting concentration of the test compounds were […], and diluted 3-fold each time for a total of 6 times to obtain 6 concentration gradients. The cells were incubated together with the test compounds at 37° C. and 5% CO2 for 48 h. CCK-8 reagent was added to each well and the cells were incubated at 37° C. for 2 h according to the reagent instructions, and the optical density value of each well was read with spectrophotometer at 450 nm wavelength.
(§2) The optical density value of the cells was set as Tz value when the drugs had null action on the cell, which represented the cell value when the drugs were added. The optical density values of the cells were set as C value after the cells were acted by solvent control DMSO for 48 h; and the optical density values of the cell were set as Ti value after the cells were acted by the test compounds for 48 h. According to the method proposed by NIH—NCI in the United States, the cells' response to drugs was calculated as follows: [(Ti−Tz)/(C−Tz)]×100 when Ti≥Tz; [(Ti−Tz)/Tz]×100 when Ti<Tz. According to the above calculation, the GI50 value (the concentration of the test compound required when the cell growth inhibition rate was 50%) was calculated by using the 4-parameter logistic model in XLfit software.

[2] = system: human multiple myeloma cells MM.1S; assay: Activity test on human multiple myeloma cells MM.1S (CCK-8, GI50); assay type: cell-based; details: MM1.S, MM.1S cells, 48 h incubation
Experimental: as §1, §2

SMILES	GI50 [1] [µM]	GI50 [2] [µM]
CC(C)C[C@H](NC(=O)CNC(=O)c1cc(Br)ccc1Cl)B1OC(=O)C(CC(=O)O)(CC(=O)O)O1 [drawing 60]	0.0107	0.0133
CC(C)C[C@H](NC(=O)CNC(=O)c1cc(Br)ccc1F)B1OC(=O)C(CC(=O)O)(CC(=O)O)O1 [drawing 61]	0.012	0.0112
CC(C)C[C@H](NC(=O)CNC(=O)c1cc(C(F)(F)F)ccc1F)B1OC(=O)C(CC(=O)O)(CC(=O)O)O1 [drawing 62]	0.0182	0.026
CC(C)C[C@H](NC(=O)CNC(=O)c1cc(Cl)ccc1Cl)B1OC(=O)C(CC(=O)O)(CC(=O)O)O1 [drawing 63]	0.0122	0.0128
CC(C)C[C@H](NC(=O)CNC(=O)c1cc(F)ccc1Br)B1OC(=O)C(CC(=O)O)(CC(=O)O)O1 [drawing 64]	0.0134	0.012
